# In US7105184B2, “Cosmetic and/or dermopharmaceutical preparations containing leaf extracts of the plant Argania spinosa” (Cognis France S.A., priority 2000, dated 2006):
# Assays:
# pancreas elastase [1] = biological target: pancreas elastase (Homo sapiens, UniProt Q9UNI1); test: Inhibition of the elastase activity; type: biochemical; details: natural substrate B (elastin/Congo Red); 30 min, 20° C.
# Method: (§1) Serine proteases, such as, for example, elastase or collagenase, bring about the degradation of elastin, proteoglycans and collagen and thus cause a weakening of the connective tissue. In the following test, the inhibiting properties of the extracts toward a pancreas elastase were investigated in two systems, firstly in a chromogenic synthetic substrate A and secondly in a natural substrate B (elastin/Congo Red). The amount of extracts used was 0.3% by weight, and the incubation time was 30 min (20° C.). The inhibition was monitored photometrically at 410 and 520 nm, and the standard used was α1-antitrypsin ([…]).
# pancreas elastase [2] = test: Inhibition of the elastase activity; type: biochemical; details: chromogenic synthetic substrate A; 30 min, 20° C.
# Method: as §1
# [3] = biological target: collagenase from Chlostridium histolyticum; test: Collagenase inhibition, chromogenic synthetic substrate C (FALGPA); type: biochemical; details: incubation 30 min, 20° C., OD at 234 nm
# Method: (§2) The biochemical test of collagenase inhibition was realized with a collagenase from Chlostridium histolyticum in a chromogenic synthetic substrate C: FALGPA (furylacryloyl-Leu-Gly-Pro-Ala), a specific substrate for collagenase, which […] by the enzyme. This substrate was obtained from SIGMA.
# (§3) The amount of extracts used was 0.3% by weight, and the incubation time was 30 min (20° C.). The inhibition was investigated by determining the optical density “OD” at 234 nm.
# [4] = system: collagenase from Chlostridium histolyticum; test: Collagenase inhibition, substrate C FALGPA; type: biochemical; details: 30 min, 20° C.
# Method: as §2, §3
# [5] = system: MMP-1 released by human dermal fibroblasts; test: Release of MMP-1 by dermal fibroblasts with and without UVA radiation; type: cell-based
# Description: (§4) The ability of leaf extracts from Argania spinosa to reduce the toxic effect of UVA rays was investigated. This in vitro test investigates the ability to reduce the content of matrix metalloproteinases, such as, for example, MMP-1, which are released by human fibroblasts following UVA radiation. More MMP are released under the influence of UVA radiation. UVA rays were chosen as the model since they penetrate into the dermis, where they induce oxidative stress, which accelerates skin aging. Furthermore, it is already known that the release of matrix metalloproteinases increases during the normal aging process of the skin. Inhibition of the MMP would thus counteract the aging process of the skin.
# (§5) The in vitro system used was a culture of dermal fibroblasts, and the parameter determined was the release of MMP-1 from these fibroblasts under the influence of UV radiation.
# (§6) To carry out the experiment, a fibroblast culture was prepared in a defined culture medium (DMEM) with fetal calf serum and inoculated 2–3 days later with the test substances. […] After the end of the irradiation, the fibroblast culture was incubated again for 2 days, and then, on a sample of the supernatant of the culture solution, the content of MMP-1 and TIMP-1 was determined. […]
# (§7) The MMP and TIMP were determined using two different kits, which are commercially available under the name RPN2610 and RPN2611 from Amersham. […]
# [6] = system: TIMP-1 in human dermal fibroblast culture; test: Content of TIMP-1 in supernatant of dermal fibroblasts with and without UVA radiation; type: cell-based
# Description: as §4, §5, §6, §7
# B16 melanocytes = test: Inhibition of melanogenesis on B16 melanocytes; type: cell-based; details: concentration 0.0003% by wt.; ratio of proportion of proteins to content of melanin
# Method: 2. Inhibition of melanogenesis on B16 melanocytes: The B16 melanocytes are cultivated in a defined medium (DMEM with 10% fetal calf serum) and incubated for 3 days at 37° C. and 5% CO2. The growth medium was replaced by the defined medium without calf serum, which comprised a certain content of the extracts to be tested. After further incubation for 3 days, the proportion of intact cells was determined via the content of cell proteins in accordance with the Bradford method (Anal. Biochem. 72, 248–254, 1976), and the content of melanin formed was determined by analyzing the optical density at 475 nm in accordance with the method described by Ando et al. 17th IFSCC Congress—Yokohama, 2, 909–918, 1992.
# The results were determined as activity index in the ratio of proportion of proteins to content of melanin: the greater the index, the higher the inhibition activity and the lower the stimulation of melanogenesis.
# tyrosinase [7] = test: Tyrosinase inhibition in tubo; type: biochemical; details: L-DOPA substrate; dopachrome optical density 475 nm; concentration for 50% inhibition
# Method: (§8) Tyrosinase inhibition: L-DOPA was mixed with tyrosinase and the extract to be tested. The optical density of the dopachrome was analyzed at 475 nm. The kinetics were then investigated and the concentration for a 50% strength inhibition (EC50) was determined.
# TIMP-1 = test: Content of TIMP-1 in dermal fibroblast culture with and without UVA radiation; type: cell-based, human; details: concentration 0.1 μM
# Method: To carry out the experiment, a fibroblast culture was prepared in a defined culture medium (DMEM) with fetal calf serum and inoculated 2–3 days later with the test substances. […] The abbreviation TIMP is understood as meaning a naturally occurring inhibitor of the metalloproteinase under the name “tissue inhibitor of matrix metalloproteinase”. The MMP and TIMP were determined using two different kits, which are commercially available under the name RPN2610 and RPN2611 from Amersham. The data given is the amount of MMP-1 and TIMP-1 in ng/ml from a test series with triple determination.
# Human MMP-1 = test: Release of MMP-1 from dermal fibroblasts with and without UVA radiation; type: cell-based; details: concentration 0.1 μM
# Description: The ability of leaf extracts from Argania spinosa to reduce the toxic effect of UVA rays was investigated. This in vitro test investigates the ability to reduce the content of matrix metalloproteinases, such as, for example, MMP-1, which are released by human fibroblasts following UVA radiation. More MMP are released under the influence of UVA radiation. UVA rays were chosen as the model since they penetrate into the dermis, where they induce oxidative stress, which accelerates skin aging. Furthermore, it is already known that the release of matrix metalloproteinases increases during the normal aging process of the skin. Inhibition of the MMP would thus counteract the aging process of the skin. The in vitro system used was a culture of dermal fibroblasts, and the parameter determined was the release of MMP-1 from these fibroblasts under the influence of UV radiation. To carry out the experiment, a fibroblast culture was prepared in a defined culture medium (DMEM) with fetal calf serum and inoculated 2–3 days later with the test substances. […] The abbreviation TIMP is understood as meaning a naturally occurring inhibitor of the metalloproteinase under the name “tissue inhibitor of matrix metalloproteinase”. The MMP and TIMP were determined using two different kits, which are commercially available under the name RPN2610 and RPN2611 from Amersham. […]
# Tyrosinase [8] = details: concentration for 50% inhibition; L-DOPA; dopachrome at 475 nm
# Method: as §8
# Chain of pancreas elastase (Q9UNI1 19-258): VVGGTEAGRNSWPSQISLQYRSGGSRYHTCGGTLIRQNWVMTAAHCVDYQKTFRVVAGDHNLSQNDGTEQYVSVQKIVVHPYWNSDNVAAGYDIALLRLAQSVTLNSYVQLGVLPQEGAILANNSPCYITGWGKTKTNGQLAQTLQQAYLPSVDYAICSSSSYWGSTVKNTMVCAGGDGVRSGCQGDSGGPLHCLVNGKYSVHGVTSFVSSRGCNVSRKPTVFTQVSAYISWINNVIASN
# Chain of pancreas elastase (Homo sapiens, UniProt Q9UNI1) (Q9UNI1 19-258): as above
molecule,measurement,setting,value
α1-antitrypsin,"Elastase inhibition IC50, Substrate B",pancreas elastase [1],IC50 = 0.034%
same,"Elastase inhibition IC50, Substrate A",pancreas elastase [2],IC50 = 0.01%
N[C@@H](CS)C(=O)O [Cystein],IC50 (Collagenase inhibition),[3],IC50 = 1.56%
same,"Collagenase inhibition IC50, Substrate C",[4],IC50 = 1.56%
C[C@@H]1C[C@H]2[C@@H]3CCC4=CC(=O)C=C[C@]4(C)[C@@]3(F)[C@@H](O)C[C@]2(C)[C@@]1(O)C(=O)CO [Dexamethasone],content of MMP-1 (in words),[5],content of MMP-1 was already reduced
same,content of TIMP-1 (in words),[6],reduction in the content of TIMP-1
"Oc1ccc(O)cc1 [Hydroquinone, hydroquinone]",Melanin synthesis Index,B16 melanocytes,2.21
same,Tyrosinase in tubo EC50,tyrosinase [7],EC50 = 0.025%
"C[C@@H]1C[C@H]2[C@@H]3CCC4=CC(=O)C=C[C@]4(C)[C@@]3(F)[C@@H](O)C[C@]2(C)[C@@]1(O)C(=O)CO [Dexamethasone, dexamethasone]",TIMP-1 in ng/ml,TIMP-1; UVA 20 J/cm^2,19 ng/mL
same,TIMP-1 in ng/ml,TIMP-1; without UVA radiation,39 ng/mL
same,MMP-1 in ng/ml,Human MMP-1; UVA 20 J/cm^2,7 ng/mL
same,MMP-1 in ng/ml,Human MMP-1; without UVA radiation,2 ng/mL
Oc1ccc(O)cc1 [Hydroquinone],EC50 (Tyrosinase in tubo),Tyrosinase [8],EC50 = 0.025%
